From ChEMBL document CHEMBL1201862, “PubChem BioAssay data set” (2004)
The source made the active and inactive calls.

Key:
[1] = target: Induced myeloid leukemia cell differentiation protein Mcl-1 (Homo sapiens, UniProt Q07820); assay: MCL1-BIM BH3 interaction inhibitors, dose response, biochemical, fluorescence polarization, BIM-BH3 peptide, 1536-well (AID 2217)
[2] = target: Bcl-2-like protein 1 (Homo sapiens, UniProt Q07817); assay: BCL-XL inhibitors, dose response, selectivity assay for MCL1 inhibitor project, biochemical, fluorescence polarization, 1536-well (AID 2218)
[3] = target: T1, Caspase-6 (Homo sapiens, UniProt P55212); assay: human caspase-6 inhibitors, dose response, biochemical, VEID-R110 fluorescence, cherry-pick (AID 720632)
T1 sequence (P55212 whole entry): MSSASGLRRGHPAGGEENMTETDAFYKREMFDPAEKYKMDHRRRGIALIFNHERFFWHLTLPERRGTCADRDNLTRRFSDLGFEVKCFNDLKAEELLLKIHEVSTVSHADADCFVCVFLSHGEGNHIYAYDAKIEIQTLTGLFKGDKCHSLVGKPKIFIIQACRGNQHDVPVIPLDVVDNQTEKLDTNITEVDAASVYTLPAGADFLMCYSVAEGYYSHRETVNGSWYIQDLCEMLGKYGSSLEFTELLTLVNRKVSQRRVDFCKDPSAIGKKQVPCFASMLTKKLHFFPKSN

[4] = target: Tyrosine-protein phosphatase non-receptor type 7 (Homo sapiens, UniProt P35236); assay: inhibitors of human HePTP phosphatase, […], biochemical, absorbance, leukemia target (AID 521); format: functional
[5] = target: T2, Bcl-2-related protein A1 (Mus musculus, UniProt Q07440); assay: Bfl-1 inhibitors, primary screen, biochemical, fluorescence polarization, FITC-Bid, mouse (AID 432)
[6] = target: T2, Bcl-2-related protein A1; assay: Bfl-1 inhibitors blocking BH3 peptide binding, confirmation, biochemical, TR-FRET, mouse Bfl-1 (AID 621);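 also: TR-FRET binding of GST-Bfl-1 to FITC-labelled Bid peptide via terbium antibody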
[7] = target: Protein-tyrosine kinase 2-beta (Homo sapiens, UniProt Q14289);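 also: potency of inhibitors of PYK2 kinase phosphorylation of poly-GT substrate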
[8] = target: Dual specificity protein phosphatase 6 (Rattus norvegicus, UniProt Q64346); assay: MKP-3 phosphatase inhibitors, primary screen, biochemical, rat enzyme, in vitro (AID 425)
[9] = target: T3, Carboxy-terminal domain RNA polymerase II polypeptide A small phosphatase 1 (Homo sapiens, UniProt Q9GZU7); assay: inhibitors of CTDSP1, concentration-response testing, biochemical assay, absorbance-based, actives from ultra-high-throughput screening (AID 540297); format: functional
T3 sequence (Q9GZU7 whole entry): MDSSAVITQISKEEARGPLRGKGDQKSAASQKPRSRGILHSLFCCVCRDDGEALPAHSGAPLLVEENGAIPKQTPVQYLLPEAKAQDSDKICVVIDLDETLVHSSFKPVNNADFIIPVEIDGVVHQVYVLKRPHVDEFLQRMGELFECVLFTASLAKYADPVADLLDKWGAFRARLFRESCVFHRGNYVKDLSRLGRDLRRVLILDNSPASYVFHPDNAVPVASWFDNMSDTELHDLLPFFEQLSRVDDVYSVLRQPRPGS

[10] = A High Throughput Confirmatory Assay used to Identify Novel Compounds that Inhibit Mycobacterium Tuberculosis in the absence of Glycerol.; format: functional
[11] = cells; format: functional
[12] = ADAM10 inhibitors, peptide cleavage, dose response, biochemical, QFRET (AID 743254);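 also: ADAM10 enzyme with the DM2 quenched FRET peptide as substrate; EDANS fluorescence gain as the protease cuts the substrate; inhibitor potency against ADAM10 proteolytic activity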
[13] = target: Disintegrin and metalloproteinase domain-containing protein 17 (Homo sapiens, UniProt P78536); assay: ADAM17 protease inhibitors, dose response, counter-screen for ADAM10 exosite inhibitor project, biochemical, quenched FRET substrate (AID 743253)
[14] = target: 5-hydroxytryptamine receptor 1E (Homo sapiens, UniProt P28566); assay: Counterscreen assay for S1P3 antagonists: Dose response cell-based high throughput screening assay to identify antagonists of the 5-Hydroxytryptamine Receptor Subtype 1E (5HT1E). [Related pubchem assays: 1429, 485 ]; format: functional
[15] = target: T4, Sphingosine 1-phosphate receptor 3 (Homo sapiens, UniProt Q99500); assay: Dose response cell-based high throughput screening assay for antagonists of the Sphingosine 1-Phosphate Receptor 3 (S1P3). [Related pubchem assays: 1429, 485 ]; format: functional
[16] = Luminescence Cell-Based Dose Confirmation HTS to Identify Inhibitors of Polyadenylation.; format: functional
[17] = target: T5, Mannose-6-phosphate isomerase (Homo sapiens, UniProt P34949); assay: inhibitors of human PMI, primary screen, biochemical, fluorescence intensity, coupled assay (AID 1209)
T5 sequence (P34949 whole entry): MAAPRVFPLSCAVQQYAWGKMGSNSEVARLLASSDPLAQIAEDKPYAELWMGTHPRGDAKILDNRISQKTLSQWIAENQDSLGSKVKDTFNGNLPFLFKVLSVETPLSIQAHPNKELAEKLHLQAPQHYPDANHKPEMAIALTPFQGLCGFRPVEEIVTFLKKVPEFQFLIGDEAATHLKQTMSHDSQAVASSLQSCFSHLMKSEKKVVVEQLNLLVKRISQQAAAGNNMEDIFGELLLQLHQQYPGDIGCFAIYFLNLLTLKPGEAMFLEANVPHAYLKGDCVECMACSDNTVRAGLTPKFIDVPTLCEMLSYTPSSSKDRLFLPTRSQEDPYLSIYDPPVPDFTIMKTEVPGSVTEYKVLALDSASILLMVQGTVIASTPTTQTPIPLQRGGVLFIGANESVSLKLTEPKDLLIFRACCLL

[18] = target: T5, Mannose-6-phosphate isomerase; assay: human PMI inhibitors, high substrate, primary screen, biochemical, fluorescence intensity, high mannose 6-phosphate (AID 1220)
[19] = THP-1 cell cytotoxicity, dose response, cytotoxicity control for non-replicating M. tuberculosis project (AID 489025); format: functional
[20] = target: T6, Replicative DNA helicase DnaB (Mycobacterium tuberculosis, UniProt P9WMR3); assay: DnaB intein splicing inhibitors, dose response, biochemical, cell-free fluorescence (AID 449749); format: functional
T6 sequence (P9WMR3 whole entry): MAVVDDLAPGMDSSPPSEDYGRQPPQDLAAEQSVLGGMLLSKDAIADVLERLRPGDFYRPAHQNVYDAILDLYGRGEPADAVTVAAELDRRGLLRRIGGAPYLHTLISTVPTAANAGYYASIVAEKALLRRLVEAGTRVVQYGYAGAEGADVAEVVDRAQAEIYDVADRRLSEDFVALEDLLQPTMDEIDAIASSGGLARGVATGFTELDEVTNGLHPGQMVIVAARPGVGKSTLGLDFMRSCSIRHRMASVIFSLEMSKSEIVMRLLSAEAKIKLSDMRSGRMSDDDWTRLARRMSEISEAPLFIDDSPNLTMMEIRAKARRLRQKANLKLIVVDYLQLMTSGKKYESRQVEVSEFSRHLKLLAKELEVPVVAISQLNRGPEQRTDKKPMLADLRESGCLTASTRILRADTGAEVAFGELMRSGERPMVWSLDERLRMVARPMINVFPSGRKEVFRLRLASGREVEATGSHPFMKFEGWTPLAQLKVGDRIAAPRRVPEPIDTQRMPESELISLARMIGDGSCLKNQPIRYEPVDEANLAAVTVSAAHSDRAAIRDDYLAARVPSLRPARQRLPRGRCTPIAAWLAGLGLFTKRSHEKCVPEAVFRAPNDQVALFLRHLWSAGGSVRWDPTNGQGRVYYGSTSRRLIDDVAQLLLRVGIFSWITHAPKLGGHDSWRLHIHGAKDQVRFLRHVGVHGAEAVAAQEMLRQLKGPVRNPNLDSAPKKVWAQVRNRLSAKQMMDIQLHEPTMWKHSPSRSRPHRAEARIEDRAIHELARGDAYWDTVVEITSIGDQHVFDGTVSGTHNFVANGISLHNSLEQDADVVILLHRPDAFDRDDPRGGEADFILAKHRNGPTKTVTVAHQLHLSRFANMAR

[21] = target: T7, Protein RecA (Mycobacterium tuberculosis, UniProt P9WHJ3); assay: Fluorescence Cell-Free Homogeneous Dose Retest to Identify Inhibitors of RecA-Intein Splicing Activity. [Related pubchem assays (depositor defined):AID2097, AID2223, AID489010, AID492950]; format: functional
T7 sequence (P9WHJ3 whole entry): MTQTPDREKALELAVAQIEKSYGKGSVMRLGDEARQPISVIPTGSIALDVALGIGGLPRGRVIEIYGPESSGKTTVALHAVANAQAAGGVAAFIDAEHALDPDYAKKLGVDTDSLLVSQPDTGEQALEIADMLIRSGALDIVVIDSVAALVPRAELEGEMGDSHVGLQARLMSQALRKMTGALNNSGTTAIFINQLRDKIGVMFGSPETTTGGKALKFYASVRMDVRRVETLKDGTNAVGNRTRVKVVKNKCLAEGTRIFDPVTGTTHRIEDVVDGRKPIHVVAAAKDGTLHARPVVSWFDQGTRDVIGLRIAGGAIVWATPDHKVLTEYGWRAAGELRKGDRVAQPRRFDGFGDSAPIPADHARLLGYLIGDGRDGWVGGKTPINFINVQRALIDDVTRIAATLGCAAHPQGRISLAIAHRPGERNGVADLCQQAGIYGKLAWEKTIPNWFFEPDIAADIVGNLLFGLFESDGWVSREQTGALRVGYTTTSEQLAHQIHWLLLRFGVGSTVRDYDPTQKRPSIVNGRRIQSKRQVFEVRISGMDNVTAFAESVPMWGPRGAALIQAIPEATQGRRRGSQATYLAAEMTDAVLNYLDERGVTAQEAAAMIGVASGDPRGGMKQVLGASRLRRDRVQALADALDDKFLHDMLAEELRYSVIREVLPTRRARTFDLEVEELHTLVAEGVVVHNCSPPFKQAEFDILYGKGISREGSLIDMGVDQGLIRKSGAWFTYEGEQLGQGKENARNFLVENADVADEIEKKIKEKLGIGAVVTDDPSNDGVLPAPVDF

[22] = target: T8, Bcl-2-like protein 10 (Homo sapiens, UniProt Q9HD36); assay: displacers of TR3 peptide from Bcl-B, primary screen, selectivity assay for Bfl-1 inhibitor project, biochemical, fluorescence polarization, FITC-TR3 peptide (AID 748);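 also: fluorescence polarization from a fluorescein-labelled TR3 peptide binding purified Bcl-B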
T8 sequence (Q9HD36 whole entry): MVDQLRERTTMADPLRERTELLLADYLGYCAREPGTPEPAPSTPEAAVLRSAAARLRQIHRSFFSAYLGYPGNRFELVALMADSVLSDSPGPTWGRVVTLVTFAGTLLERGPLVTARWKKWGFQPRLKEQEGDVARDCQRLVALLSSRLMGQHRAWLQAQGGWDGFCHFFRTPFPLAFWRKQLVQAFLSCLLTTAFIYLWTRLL

[23] = target: T9, Estrogen receptor (Homo sapiens, UniProt P03372);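 also: potency for inhibiting coactivator peptide recruitment to the receptor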
T9 sequence (P03372 whole entry): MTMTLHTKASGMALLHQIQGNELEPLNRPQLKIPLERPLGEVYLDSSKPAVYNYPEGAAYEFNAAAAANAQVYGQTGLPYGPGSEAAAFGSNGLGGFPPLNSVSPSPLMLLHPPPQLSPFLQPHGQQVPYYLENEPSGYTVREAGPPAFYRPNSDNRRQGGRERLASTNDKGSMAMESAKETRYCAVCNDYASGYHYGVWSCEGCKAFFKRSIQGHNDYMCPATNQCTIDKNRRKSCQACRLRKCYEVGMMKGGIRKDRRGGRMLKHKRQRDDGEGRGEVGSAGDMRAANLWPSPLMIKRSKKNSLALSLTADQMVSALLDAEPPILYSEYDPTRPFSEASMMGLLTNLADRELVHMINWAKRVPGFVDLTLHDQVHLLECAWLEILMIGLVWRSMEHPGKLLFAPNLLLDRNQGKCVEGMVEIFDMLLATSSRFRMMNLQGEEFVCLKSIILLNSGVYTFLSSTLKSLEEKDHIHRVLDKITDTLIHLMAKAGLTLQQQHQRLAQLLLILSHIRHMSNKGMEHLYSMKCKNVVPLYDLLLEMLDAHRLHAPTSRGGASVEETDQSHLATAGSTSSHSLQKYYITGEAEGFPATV

[24] = target: T10, Estrogen receptor beta (Homo sapiens, UniProt Q92731);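 also: recombinant ER-beta bound to coactivator SRC1 peptide in presence of estradiol agonist; inhibitors block coactivator peptide binding and lower the FRET signal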
[25] = target: T10, Estrogen receptor beta; assay: ERβ–SRC-3 coactivator interaction inhibitors, confirmation, orthogonal assay, biochemical, ELISA, streptavidin-HRP readout (AID 1060)
[26] = target: Sphingosine 1-phosphate receptor 2 (Homo sapiens, UniProt O95136); assay: Dose Response Cell-Based Assay for Agonists of the Sphingosine 1-Phosphate Receptor 2 (S1P2): Purchased Analogues. [Related pubchem assays: 1192, 373, 439 ]; format: functional
[27] = target: Sphingosine 1-phosphate receptor 1 (Homo sapiens, UniProt P21453); assay: Dose Response Cell-Based Assay for Agonists of the Sphingosine 1-Phosphate Receptor 1 (S1P1): Purchased Analogues. [Related pubchem assays: 1192, 373, 439 ]; format: functional
[28] = target: T4, Sphingosine 1-phosphate receptor 3; assay: Dose Response Cell-Based Assay for Agonists of the Sphingosine 1-Phosphate Receptor 3 (S1P3): Purchased Analogues. [Related pubchem assays: 373, 439 ]; format: functional

T2 sequence (Q07440 whole entry): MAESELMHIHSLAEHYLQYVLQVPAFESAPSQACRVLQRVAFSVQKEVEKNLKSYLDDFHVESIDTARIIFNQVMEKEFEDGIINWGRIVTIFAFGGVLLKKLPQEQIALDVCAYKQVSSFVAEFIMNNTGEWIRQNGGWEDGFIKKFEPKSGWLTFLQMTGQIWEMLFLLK
T10 sequence (Q92731 whole entry): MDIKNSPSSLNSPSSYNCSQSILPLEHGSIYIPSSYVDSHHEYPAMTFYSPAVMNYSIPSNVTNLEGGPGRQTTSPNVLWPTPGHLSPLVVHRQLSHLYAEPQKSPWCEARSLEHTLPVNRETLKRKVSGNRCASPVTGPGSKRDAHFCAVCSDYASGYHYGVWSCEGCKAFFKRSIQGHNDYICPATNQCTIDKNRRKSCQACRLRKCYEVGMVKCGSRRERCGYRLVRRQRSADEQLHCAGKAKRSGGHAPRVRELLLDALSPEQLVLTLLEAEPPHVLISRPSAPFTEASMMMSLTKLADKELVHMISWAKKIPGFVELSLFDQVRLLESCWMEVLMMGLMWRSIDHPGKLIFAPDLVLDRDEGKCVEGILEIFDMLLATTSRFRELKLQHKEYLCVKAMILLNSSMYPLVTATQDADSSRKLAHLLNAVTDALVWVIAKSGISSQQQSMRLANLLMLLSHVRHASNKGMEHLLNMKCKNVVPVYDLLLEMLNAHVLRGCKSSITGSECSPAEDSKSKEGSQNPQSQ
T4 sequence (Q99500 whole entry): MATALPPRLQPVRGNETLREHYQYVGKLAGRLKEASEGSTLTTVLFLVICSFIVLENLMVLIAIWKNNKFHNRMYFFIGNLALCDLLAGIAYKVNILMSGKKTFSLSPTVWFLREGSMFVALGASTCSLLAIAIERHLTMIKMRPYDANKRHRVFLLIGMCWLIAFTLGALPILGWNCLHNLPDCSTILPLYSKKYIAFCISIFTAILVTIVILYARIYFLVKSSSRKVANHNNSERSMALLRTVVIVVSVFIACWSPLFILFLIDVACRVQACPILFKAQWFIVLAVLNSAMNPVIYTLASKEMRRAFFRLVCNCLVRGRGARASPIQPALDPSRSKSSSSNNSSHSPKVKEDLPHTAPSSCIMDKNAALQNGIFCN
Chain of Dual specificity protein phosphatase 6 (Q64346 whole entry, the tested form may be a part): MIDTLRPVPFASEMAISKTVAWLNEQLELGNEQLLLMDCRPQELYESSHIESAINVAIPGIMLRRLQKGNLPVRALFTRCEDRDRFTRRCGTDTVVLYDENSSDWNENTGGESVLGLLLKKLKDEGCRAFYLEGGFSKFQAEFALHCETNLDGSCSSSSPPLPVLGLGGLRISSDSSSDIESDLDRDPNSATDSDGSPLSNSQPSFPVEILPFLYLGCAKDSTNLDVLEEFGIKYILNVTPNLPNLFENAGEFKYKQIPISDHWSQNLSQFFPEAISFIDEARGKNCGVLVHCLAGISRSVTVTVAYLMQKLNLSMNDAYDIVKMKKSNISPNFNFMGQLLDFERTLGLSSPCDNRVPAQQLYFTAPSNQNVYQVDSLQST
Chain of Sphingosine 1-phosphate receptor 1 (P21453 whole entry): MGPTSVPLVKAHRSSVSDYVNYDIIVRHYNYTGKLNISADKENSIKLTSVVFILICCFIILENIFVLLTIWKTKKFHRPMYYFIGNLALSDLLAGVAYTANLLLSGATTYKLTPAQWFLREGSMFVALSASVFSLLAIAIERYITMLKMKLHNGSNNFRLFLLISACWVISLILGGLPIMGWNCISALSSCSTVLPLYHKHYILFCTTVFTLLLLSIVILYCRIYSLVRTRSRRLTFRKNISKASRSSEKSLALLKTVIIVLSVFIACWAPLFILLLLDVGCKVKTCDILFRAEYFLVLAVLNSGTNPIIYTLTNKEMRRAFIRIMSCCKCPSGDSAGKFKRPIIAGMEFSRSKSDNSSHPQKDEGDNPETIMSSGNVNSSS
Chain of Bcl-2-like protein 1 (Q07817 whole entry): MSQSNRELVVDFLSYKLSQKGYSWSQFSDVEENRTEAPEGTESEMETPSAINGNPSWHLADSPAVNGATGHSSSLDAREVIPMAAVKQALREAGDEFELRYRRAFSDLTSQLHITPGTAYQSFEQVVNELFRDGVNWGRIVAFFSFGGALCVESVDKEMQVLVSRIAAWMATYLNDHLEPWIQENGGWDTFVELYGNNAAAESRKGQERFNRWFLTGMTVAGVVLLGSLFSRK
Chain of Disintegrin and metalloproteinase domain-containing protein 17 (P78536 whole entry, the tested form may be a part): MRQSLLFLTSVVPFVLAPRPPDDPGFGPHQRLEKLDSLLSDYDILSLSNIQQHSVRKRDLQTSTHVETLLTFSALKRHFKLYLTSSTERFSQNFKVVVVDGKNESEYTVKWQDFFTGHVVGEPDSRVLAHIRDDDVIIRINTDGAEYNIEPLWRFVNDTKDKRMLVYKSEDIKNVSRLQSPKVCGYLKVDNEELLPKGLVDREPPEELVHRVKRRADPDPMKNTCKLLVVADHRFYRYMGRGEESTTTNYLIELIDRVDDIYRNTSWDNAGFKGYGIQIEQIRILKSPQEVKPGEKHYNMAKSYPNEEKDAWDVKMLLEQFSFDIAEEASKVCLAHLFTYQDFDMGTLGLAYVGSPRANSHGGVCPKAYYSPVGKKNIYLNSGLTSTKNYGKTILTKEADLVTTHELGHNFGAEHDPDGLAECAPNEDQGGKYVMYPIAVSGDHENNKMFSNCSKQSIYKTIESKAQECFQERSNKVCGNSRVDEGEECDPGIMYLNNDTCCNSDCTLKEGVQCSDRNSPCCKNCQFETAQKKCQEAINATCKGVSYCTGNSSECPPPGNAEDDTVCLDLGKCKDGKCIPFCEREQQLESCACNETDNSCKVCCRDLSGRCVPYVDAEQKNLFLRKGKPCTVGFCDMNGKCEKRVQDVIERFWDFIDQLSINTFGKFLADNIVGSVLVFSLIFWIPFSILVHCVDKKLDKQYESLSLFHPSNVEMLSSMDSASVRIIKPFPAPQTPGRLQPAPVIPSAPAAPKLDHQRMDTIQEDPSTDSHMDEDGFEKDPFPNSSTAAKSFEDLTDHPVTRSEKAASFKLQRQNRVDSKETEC
Chain of Sphingosine 1-phosphate receptor 2 (O95136 whole entry): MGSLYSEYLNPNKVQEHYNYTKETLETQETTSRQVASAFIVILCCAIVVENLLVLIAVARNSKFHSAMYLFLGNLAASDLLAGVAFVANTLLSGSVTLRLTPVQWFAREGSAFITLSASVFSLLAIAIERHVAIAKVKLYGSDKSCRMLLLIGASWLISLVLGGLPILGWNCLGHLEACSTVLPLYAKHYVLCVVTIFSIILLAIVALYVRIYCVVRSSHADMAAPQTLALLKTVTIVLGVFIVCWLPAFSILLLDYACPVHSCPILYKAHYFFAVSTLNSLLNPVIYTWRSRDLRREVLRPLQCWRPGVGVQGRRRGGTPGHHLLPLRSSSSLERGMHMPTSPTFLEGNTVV
Chain of Induced myeloid leukemia cell differentiation protein Mcl-1 (Q07820 whole entry): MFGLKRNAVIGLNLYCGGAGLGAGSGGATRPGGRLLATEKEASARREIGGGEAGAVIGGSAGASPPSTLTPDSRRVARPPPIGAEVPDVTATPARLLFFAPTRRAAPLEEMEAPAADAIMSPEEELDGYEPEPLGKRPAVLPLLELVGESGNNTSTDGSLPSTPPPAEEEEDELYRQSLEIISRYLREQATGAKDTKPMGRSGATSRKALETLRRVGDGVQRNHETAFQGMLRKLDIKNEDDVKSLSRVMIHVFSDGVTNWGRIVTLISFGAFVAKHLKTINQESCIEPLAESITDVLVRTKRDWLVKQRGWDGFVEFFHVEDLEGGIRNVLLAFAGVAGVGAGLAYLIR
Chain of Protein-tyrosine kinase 2-beta (Q14289 whole entry): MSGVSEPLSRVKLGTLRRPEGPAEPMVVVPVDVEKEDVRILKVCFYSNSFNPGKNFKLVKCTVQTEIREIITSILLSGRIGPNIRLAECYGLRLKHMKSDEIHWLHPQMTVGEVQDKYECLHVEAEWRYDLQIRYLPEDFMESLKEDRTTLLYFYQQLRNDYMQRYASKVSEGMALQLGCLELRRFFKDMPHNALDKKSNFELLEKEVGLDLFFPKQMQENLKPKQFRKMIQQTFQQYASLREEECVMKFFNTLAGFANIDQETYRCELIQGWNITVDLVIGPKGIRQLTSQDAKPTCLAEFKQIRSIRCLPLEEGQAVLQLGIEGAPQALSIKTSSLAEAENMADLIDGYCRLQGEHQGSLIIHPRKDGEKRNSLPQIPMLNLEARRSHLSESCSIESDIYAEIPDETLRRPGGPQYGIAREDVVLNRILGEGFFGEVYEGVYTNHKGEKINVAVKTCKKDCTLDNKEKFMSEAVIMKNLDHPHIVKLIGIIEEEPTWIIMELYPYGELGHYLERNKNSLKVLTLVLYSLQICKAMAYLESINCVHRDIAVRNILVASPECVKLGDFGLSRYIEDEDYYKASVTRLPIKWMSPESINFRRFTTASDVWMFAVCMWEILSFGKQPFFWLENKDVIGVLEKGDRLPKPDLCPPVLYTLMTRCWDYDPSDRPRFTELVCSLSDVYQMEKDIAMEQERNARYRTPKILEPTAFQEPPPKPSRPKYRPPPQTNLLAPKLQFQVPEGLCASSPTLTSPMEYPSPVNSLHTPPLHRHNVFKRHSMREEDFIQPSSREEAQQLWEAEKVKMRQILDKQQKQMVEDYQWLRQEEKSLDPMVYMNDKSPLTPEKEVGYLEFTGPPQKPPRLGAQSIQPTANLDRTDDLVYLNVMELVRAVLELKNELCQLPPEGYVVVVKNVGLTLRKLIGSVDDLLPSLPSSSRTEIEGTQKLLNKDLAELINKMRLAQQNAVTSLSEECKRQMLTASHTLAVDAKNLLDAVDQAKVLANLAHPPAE
Chain of Tyrosine-protein phosphatase non-receptor type 7 (P35236 whole entry): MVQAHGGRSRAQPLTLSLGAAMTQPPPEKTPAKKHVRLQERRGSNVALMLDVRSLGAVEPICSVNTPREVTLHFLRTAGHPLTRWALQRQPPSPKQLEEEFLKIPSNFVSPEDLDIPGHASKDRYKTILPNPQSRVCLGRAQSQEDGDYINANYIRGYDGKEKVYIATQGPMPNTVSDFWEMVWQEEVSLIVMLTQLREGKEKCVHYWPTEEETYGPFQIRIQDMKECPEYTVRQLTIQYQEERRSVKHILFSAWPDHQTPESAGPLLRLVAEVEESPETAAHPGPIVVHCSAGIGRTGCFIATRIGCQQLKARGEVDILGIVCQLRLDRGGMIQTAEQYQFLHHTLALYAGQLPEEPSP

## Nc1ccc(S(=O)(=O)Nc2nc3ccccc3o2)cc1
[1]
  IC50: > 109 µM (not active)
[2]
  IC50: > 109 µM (not active)
[3]
  AC50: 42.1 µM (active)

## COc1ccc2nc(O)c(-c3noc(-c4ccccc4)n3)cc2c1
[4]
  IC50: 4.23 µM (active)
[5]
  IC50: 24.6 µM (active)
[6]
  IC50: > 100 µM (not active)
[7]
  IC50: > 2.57 µM (not active)
[8]
  IC50: > 10 µM (not active)
[9]
  IC50: 7.01 µM (active)

## Cc1cccc(OCC(=O)NNC(=O)c2cc3ccccc3oc2=O)c1
[10]
  IC50: > 100 µM (active)
[11]
  IC50: 19.4 µM (active)
[12]
  IC50: > 69.5 µM (inactive)
[13]
  IC50: > 69.5 µM (inactive)

## C=CCN1CCN(C(c2ccc(Cl)cc2)c2nnnn2CCc2ccc(OC)c(OC)c2)CC1 (stereo not drawn)
[14]
  IC50: > 50 µM (not active)
[15]
  IC50: > 50 µM (not active)

## COc1ccc(C2SCC(=O)N2c2c(C)n(C)n(-c3ccccc3)c2=O)cc1OC (stereo not drawn)
[16]
  EC50: > 120 µM (not active)

## O=Cc1ccnc(-c2ccc(OC(=O)c3ccco3)cc2)n1
[17]
  IC50: 7.4 µM (active)
[18]
  IC50: 6.56 µM (active)
[19]
  CC50: > 40 µM (active)
[20]
  AC50: 5.71 µM (active)
[21]
  EC50: 16.8 µM (active)

## Cc1ccc(S(=O)(=O)N2CCCCC2)cc1C(=O)Nc1nc[nH]n1
[22]
  IC50: 27.7 µM (active)
[23]
  IC50: > 50 µM (not active)
[24]
  IC50: 8.84 µM (active)
[25]
  IC50: > 109 µM (not active)

## Cc1ccc(-c2cc(C(=O)N(C)C3CCCCC3)no2)cc1
[26]
  EC50: > 10 µM (not active)
[27]
  EC50: 0.724 µM (active)
[28]
  EC50: > 50 µM (not active)
